Test results as given in the NIST ThermoML archive (doi:10.1016/j.fluid.2017.04.007).

Legend:
[1] = Crystal; DTA
[2] = Molar enthalpy of transition or fusion; details: Crystal; DSC
[3] = xn = mol fraction of the nth substance listed; details: 101 kPa, Liquid, Vibrating tube method

CC[N+](CC)(CC)CC.[Cl-] [tetraethylammonium chloride]
Details | Molar enthalpy of transition or fusion [kJ/mol] | Normal melting temperature [°C]
[1] | – | 253.63
[2] | 51.2 | –

C[N+](C)(C)C.[Cl-] [tetramethylammonium chloride] + O
mass density [kg/m3], [3]
Details | 298.15 K | 308.15 K | 318.15 K | 328.15 K | 338.15 K | 348.15 K | 358.15 K
x1 = 0.026 | 1001.5 | 998.1 | – | – | – | – | –
x1 = 0.06 | 1005.7 | 1001.7 | 997.5 | 991.3 | 985.1 | 975.6 | 959.5
x1 = 0.1062 | 1012.8 | 1008.6 | 1004.1 | 999.5 | 993.1 | 986.6 | 977.1
x1 = 0.1731 | 1022.5 | 1018.1 | 1013.5 | 1008.9 | 1004 | 998.9 | 993
x1 = 0.2831 | 1034.1 | 1029.5 | 1025 | 1020.3 | 1015.7 | 1010.9 | 1006.1

CCCCCCCCCC(=O)O [decanoic acid]
Details | Molar enthalpy of transition or fusion [kJ/mol] | Normal melting temperature [°C]
[1] | – | 31.60
[2] | 27.5 | –

CC[N+](CC)(CC)CC.[Cl-] [tetraethylammonium chloride] + O
mass density [kg/m3], [3]
Details | 298.15 K | 308.15 K | 318.15 K | 328.15 K | 338.15 K | 348.15 K | 358.15 K
x1 = 0.0173 | 1000.2 | 996.7 | 992.3 | – | – | – | –
x1 = 0.0403 | 1005.7 | 1001.1 | 996.5 | 990.9 | 982.8 | 971.4 | 953.1
x1 = 0.0727 | 1014.9 | 1009.5 | 1003.9 | 998.3 | 992.2 | 985.7 | 977.1
x1 = 0.1213 | 1027 | 1020.8 | 1014.4 | 1008 | 1001.5 | 995.1 | 988.4
x1 = 0.1994 | 1035.4 | 1029.1 | 1022.8 | 1016.4 | 1010 | 1003.4 | 997.2

C[N+](C)(C)C.[Cl-] [tetramethylammonium chloride]
Details | Normal melting temperature [°C]
[1] | 339.72

CCCCCCCCCCCC(=O)O [dodecanoic acid]
Details | Molar enthalpy of transition or fusion [kJ/mol] | Normal melting temperature [°C]
[1] | – | 44.33
[2] | 37.8 | –

CCCCCCCCCCCCCCCCCC(=O)O [octadecanoic acid]
Details | Molar enthalpy of transition or fusion [kJ/mol] | Normal melting temperature [°C]
[1] | – | 70.52
[2] | 61.4 | –

CCCCCCCCCCCCCCCC(=O)O [hexadecanoic acid]
Details | Molar enthalpy of transition or fusion [kJ/mol] | Normal melting temperature [°C]
[1] | – | 63.69
[2] | 51 | –

CCCCCCCCCCCCCC(=O)O [tetradecanoic acid]
Details | Molar enthalpy of transition or fusion [kJ/mol] | Normal melting temperature [°C]
[1] | – | 53.88
[2] | 41.3 | –
